Reference: ChEMBL document CHEMBL1201862, “PubChem BioAssay data set” (2004)
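Test compounds were applied to cells in 96-well plates for 48 hours at 5 doses. Here, GI50 denotes the concentration required for 50% inhibition of growth.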 The source made the active and inactive calls. No stated cut-off is given here; in the data, active = GI50 up to about 1.1 µM and inactive = higher.

Experiments:
Assay in all cases: inhibition of tumour cell growth, NCI panel, 48 h
[1] = system: 786-0
[2] = system: ACHN
[3] = system: EKVX
[4] = system: HCC 2998
[5] = system: HCT-15
[6] = system: HOP-62
[7] = system: Hs-578T
[8] = system: K562
[9] = system: NCI-H460
[10] = system: PC-3
[11] = system: RXF 393
[12] = system: SF-268
[13] = system: SR
[14] = system: SW-620
[15] = system: T47D
[16] = system: TK-10
[17] = system: BT-549
[18] = system: HOP-92
[19] = system: SK-OV-3

Row | SMILES | GI50 [1] | GI50 [2] | GI50 [3] | GI50 [4] | GI50 [5] [µM] | GI50 [6] | GI50 [7] | GI50 [8] | GI50 [9] | GI50 [10] | GI50 [11] | GI50 [12] | GI50 [13] | GI50 [14] | GI50 [15] | GI50 [16] | GI50 [17] | GI50 [18] | GI50 [19]
1 | CS/C(C#N)=C(\C#N)SC | 4.89 µM (inactive) | 4.33 µM (inactive) | 19 µM (inactive) | 2.99 µM (inactive) | 2.23 | 16.6 µM (inactive) | 31.8 µM (inactive) | 4.11 µM (inactive) | 21.4 µM (inactive) | 15.2 µM (inactive) | 1.82 µM (inactive) | 11.9 µM (inactive) | 1.24 µM (inactive) | 4.47 µM (inactive) | 4.19 µM (inactive) | 6.55 µM (inactive) |  |  | 
2 | OC1(C(Sc2cc(C(F)(F)F)cc(C(F)(F)F)c2)Sc2cc(C(F)(F)F)cc(C(F)(F)F)c2)C=CCCC1 (stereo unspecified) | 2.39 µM (inactive) | 1.85 µM (inactive) | 2.22 µM (inactive) | 1.4 µM (inactive) | 1.37 | 3.25 µM (inactive) | 2.95 µM (inactive) | 1.53 µM (inactive) | 1.33 µM (inactive) |  | 1.75 µM (inactive) | 2.54 µM (inactive) |  | 1.91 µM (inactive) | 1.25 µM (inactive) | 1.51 µM (inactive) | 3.35 µM (inactive) | 2.83 µM (inactive) | 2.67 µM (inactive)
3 | COc1ccc(C[N+]23C(CC[C@H]2c2ccccc2)CC[C@H]3c2ccccc2)cc1 (stereo partly specified) | 39.4 µM (inactive) | 67.6 µM (inactive) | 15.4 µM (inactive) |  |  | 21 µM (inactive) | 27.7 µM (inactive) | 6.46 µM (inactive) |  | 20 µM (inactive) | 13.8 µM (inactive) | 30.3 µM (inactive) | 15.7 µM (inactive) | 28.2 µM (inactive) | 4.56 µM (inactive) | 44.9 µM (inactive) |  | 9.66 µM (inactive) | 29.5 µM (inactive)
4 | CCN1CCN(c2nc3ccccc3nc2C(=O)c2ccc(OC)cc2)CC1 | 19.4 µM (inactive) | 27.8 µM (inactive) | 47.1 µM (inactive) | > 100 µM (inactive) | 49.4 | 16 µM (inactive) | 38.6 µM (inactive) | 43.9 µM (inactive) | 21.5 µM (inactive) | 78 µM (inactive) | 12.4 µM (inactive) | 29.4 µM (inactive) | 11.7 µM (inactive) | 30.3 µM (inactive) | > 100 µM (inactive) | 22.6 µM (inactive) |  | 18.3 µM (inactive) | > 100 µM (inactive)
5 | O=C(NC(CS)C(=O)O)c1c2ccccc2nc2ccccc12 (stereo unspecified) | > 100 µM (inactive) | 21.3 µM (inactive) | 47.5 µM (inactive) | 83.9 µM (inactive) | 12.8 | 38.7 µM (inactive) |  | 40.2 µM (inactive) | 23.6 µM (inactive) | 23.9 µM (inactive) |  | > 100 µM (inactive) | > 100 µM (inactive) | 34 µM (inactive) |  | > 100 µM (inactive) | 12.8 µM (inactive) | > 100 µM (inactive) | 95.3 µM (inactive)
6 | CCOC(=O)N1CCC2(CC1)C[C@](Sc1ccccc1)(C(C)=O)[C@H](C)O2 | > 100 µM (inactive) | > 100 µM (inactive) | > 100 µM (inactive) | > 100 µM (inactive) | > 100 | > 100 µM (inactive) | > 100 µM (inactive) | > 100 µM (inactive) | > 100 µM (inactive) | > 100 µM (inactive) | > 100 µM (inactive) | > 100 µM (inactive) | > 100 µM (inactive) | > 100 µM (inactive) | > 100 µM (inactive) | > 100 µM (inactive) |  | > 100 µM (inactive) | > 100 µM (inactive)
7 | Cn1cnc([N+](=O)[O-])c1Sc1nncc2[nH]cnc12 | > 100 µM (inactive) | > 100 µM (inactive) | > 100 µM (inactive) | > 100 µM (inactive) | > 100 | > 100 µM (inactive) |  | > 100 µM (inactive) |  | > 100 µM (inactive) |  |  | > 100 µM (inactive) | > 100 µM (inactive) | > 100 µM (inactive) | > 100 µM (inactive) | > 100 µM (inactive) | > 100 µM (inactive) | > 100 µM (inactive)
8 | Cc1cc([N+](=O)[O-])ccc1Sc1c2ccccc2nc2ccccc12 | 23.6 µM (inactive) | 48.9 µM (inactive) | 39 µM (inactive) | 25.4 µM (inactive) | 22.5 | > 100 µM (inactive) |  | 32.1 µM (inactive) | 32 µM (inactive) |  | 57.5 µM (inactive) | 41 µM (inactive) | 27.7 µM (inactive) | 22.6 µM (inactive) |  | 57 µM (inactive) |  | 48.3 µM (inactive) | 31.3 µM (inactive)
9 | N#Cc1c(-c2ccc(Cl)cc2)c(C#N)c(=O)n(NS(=O)(=O)c2ccccc2)c1-c1ccccc1 | > 25 µM (inactive) | > 25 µM (inactive) |  | > 25 µM (inactive) | > 25 | > 25 µM (inactive) |  | > 25 µM (inactive) | > 25 µM (inactive) | > 25 µM (inactive) | > 25 µM (inactive) |  |  | > 25 µM (inactive) |  | > 25 µM (inactive) | > 25 µM (inactive) | > 25 µM (inactive) | > 25 µM (inactive)
10 | CC1=CC(=O)C(C(O)(C(F)(F)F)C(F)(F)F)C(C)(C)C1 (stereo unspecified) | > 10 µM (inactive) | > 10 µM (inactive) | > 10 µM (inactive) | > 10 µM (inactive) | > 10 | > 10 µM (inactive) | > 10 µM (inactive) | > 10 µM (inactive) | > 10 µM (inactive) | > 10 µM (inactive) | > 10 µM (inactive) | > 10 µM (inactive) | > 10 µM (inactive) | > 10 µM (inactive) | > 10 µM (inactive) | > 10 µM (inactive) |  |  | > 10 µM (inactive)
11 | COc1ccc(/C=C2\OC(=O)C(Cl)=C2c2ccc(OC)c(Cl)c2)cc1 | 15.4 µM (inactive) | 30.4 µM (inactive) | 18.3 µM (inactive) | 35.3 µM (inactive) | 45 | 15.2 µM (inactive) | 20.9 µM (inactive) | 56.1 µM (inactive) | 22.6 µM (inactive) | 30.8 µM (inactive) | 12 µM (inactive) | 17.3 µM (inactive) | 29 µM (inactive) | 36.6 µM (inactive) | 32.1 µM (inactive) | 21.7 µM (inactive) |  | 17.9 µM (inactive) | 33.9 µM (inactive)
12 | COC(=O)CC[N+]1([O-])CC1 | > 100 µM (inactive) | > 100 µM (inactive) | > 100 µM (inactive) | > 100 µM (inactive) | > 100 | > 100 µM (inactive) | > 100 µM (inactive) |  | > 100 µM (inactive) |  | > 100 µM (inactive) | > 100 µM (inactive) | > 100 µM (inactive) | > 100 µM (inactive) | > 100 µM (inactive) | > 100 µM (inactive) |  | > 100 µM (inactive) | > 100 µM (inactive)
13 | Nn1c(S)nnc1CCCCCCCCc1nnc(S)n1N | > 100 µM (inactive) | > 100 µM (inactive) | > 100 µM (inactive) | > 100 µM (inactive) | > 100 | > 100 µM (inactive) |  | > 100 µM (inactive) | > 100 µM (inactive) | > 100 µM (inactive) | > 100 µM (inactive) | > 100 µM (inactive) | > 100 µM (inactive) | > 100 µM (inactive) | > 100 µM (inactive) |  | > 100 µM (inactive) | > 100 µM (inactive) | > 100 µM (inactive)
14 | COC(=O)c1cc2ccc(N)nc2[nH]c1=O | > 100 µM (inactive) | > 100 µM (inactive) | > 100 µM (inactive) | > 100 µM (inactive) | > 100 | > 100 µM (inactive) |  |  | > 100 µM (inactive) | > 100 µM (inactive) | > 100 µM (inactive) | > 100 µM (inactive) |  | > 100 µM (inactive) | > 100 µM (inactive) | > 100 µM (inactive) | > 100 µM (inactive) | > 100 µM (inactive) | > 100 µM (inactive)
15 | Cc1cn(Cc2ccccc2CCl)c(=O)[nH]c1=O | 14.2 µM (inactive) | 12.6 µM (inactive) | 16.4 µM (inactive) | 15.3 µM (inactive) | 14.8 | 15.6 µM (inactive) | 14.2 µM (inactive) | 4.72 µM (inactive) | 21.1 µM (inactive) | 16 µM (inactive) | 8 µM (inactive) | 13 µM (inactive) |  | 8.15 µM (inactive) | 11.5 µM (inactive) | 15.3 µM (inactive) |  | 25.4 µM (inactive) | 26.4 µM (inactive)
16 | CC(C)CCC[C@@H](C)C1CCC2[C@@H]3CCC4CC(CCC=C(c5cc(Cl)c(OC(=O)c6ccccc6)c(C(=O)O)c5)c5cc(Cl)c(OC(=O)c6ccccc6)c(C(=O)O)c5)CC[C@]4(C)C3CC[C@@]21C (stereo partly specified) | 22.6 µM (inactive) | > 100 µM (inactive) | 88.3 µM (inactive) | > 100 µM (inactive) | 46.1 | > 100 µM (inactive) | > 100 µM (inactive) | > 100 µM (inactive) | > 100 µM (inactive) | > 100 µM (inactive) | > 100 µM (inactive) |  |  | > 100 µM (inactive) |  | 52.2 µM (inactive) | > 100 µM (inactive) | 28.1 µM (inactive) | > 100 µM (inactive)
17 | CO[C@H]1/C=C/O[C@@]2(C)Oc3c(C)c(O)c4c(O)c(c(/C=N/N5CCN(C)CC5)c(O)c4c3C2=O)NC(=O)/C(C)=C\C=C\[C@H](C)[C@H](O)[C@@H](C)[C@@H](O)[C@@H](C)[C@H](OC(C)=O)[C@@H]1C [RIFAMPIN] | > 100 µM (inactive) | > 100 µM (inactive) | > 100 µM (inactive) | 72.6 µM (inactive) |  | > 100 µM (inactive) |  | > 100 µM (inactive) | 45.8 µM (inactive) | 81.5 µM (inactive) | > 100 µM (inactive) |  | 3.32 µM (inactive) | > 100 µM (inactive) | > 100 µM (inactive) | > 100 µM (inactive) | 62.8 µM (inactive) |  | > 100 µM (inactive)
